Assay results: PMC3355227 (ACS Chemical Biology, 2012)
Where a SMILES comes first, the peptide text is derived from it. Where no end group is shown, it is not given here. [ ]: non-standard residue; d: D form. The star is where a group is joined. pT = C[C@@H](OP(=O)(O)O)[C@H](N)C(=O)O; Hyp = O=C(O)[C@@H]1C[C@@H](O)CN1; Butyl(4-Ph) = c1ccc(CCCC*)cc1

Tests used:
[1] = target: HA-EGFP-Plk1 (Plk1 PBD) in mitotic 293A cell lysates (Homo sapiens, UniProt P53350); assay: ELISA-based PBD-binding inhibition assay; conditions: relative comparison; oxime libraries tested as crude reaction mixtures
Sequence of HA-EGFP-Plk1 (Plk1 PBD) in mitotic 293A cell lysates (P53350 whole entry): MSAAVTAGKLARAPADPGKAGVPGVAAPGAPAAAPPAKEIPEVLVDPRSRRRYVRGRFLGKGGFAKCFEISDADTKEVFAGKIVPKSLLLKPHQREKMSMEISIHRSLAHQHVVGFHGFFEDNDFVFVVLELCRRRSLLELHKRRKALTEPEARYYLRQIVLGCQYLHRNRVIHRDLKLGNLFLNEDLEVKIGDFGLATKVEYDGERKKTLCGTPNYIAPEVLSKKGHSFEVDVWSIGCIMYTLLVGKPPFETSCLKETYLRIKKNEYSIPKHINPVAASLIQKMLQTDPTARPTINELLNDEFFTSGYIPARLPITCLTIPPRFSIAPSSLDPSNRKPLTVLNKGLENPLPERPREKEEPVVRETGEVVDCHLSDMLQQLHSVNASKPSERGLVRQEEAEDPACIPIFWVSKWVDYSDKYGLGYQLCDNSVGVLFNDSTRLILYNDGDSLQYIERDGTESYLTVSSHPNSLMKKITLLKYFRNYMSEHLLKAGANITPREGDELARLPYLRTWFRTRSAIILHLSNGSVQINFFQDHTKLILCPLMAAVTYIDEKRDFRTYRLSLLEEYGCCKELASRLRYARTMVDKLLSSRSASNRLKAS

Flag-Plk2 (K108M) = Flag-Plk2 (K108M) (Mus musculus, UniProt P53351, K108M); assay: Peptide pull-down assay from mitotic 293T cell lysates, Plk2; conditions: bead-immobilized peptide, anti-Flag immunoblot
Sequence of Flag-Plk2 (K108M) (P53351 whole entry K108M): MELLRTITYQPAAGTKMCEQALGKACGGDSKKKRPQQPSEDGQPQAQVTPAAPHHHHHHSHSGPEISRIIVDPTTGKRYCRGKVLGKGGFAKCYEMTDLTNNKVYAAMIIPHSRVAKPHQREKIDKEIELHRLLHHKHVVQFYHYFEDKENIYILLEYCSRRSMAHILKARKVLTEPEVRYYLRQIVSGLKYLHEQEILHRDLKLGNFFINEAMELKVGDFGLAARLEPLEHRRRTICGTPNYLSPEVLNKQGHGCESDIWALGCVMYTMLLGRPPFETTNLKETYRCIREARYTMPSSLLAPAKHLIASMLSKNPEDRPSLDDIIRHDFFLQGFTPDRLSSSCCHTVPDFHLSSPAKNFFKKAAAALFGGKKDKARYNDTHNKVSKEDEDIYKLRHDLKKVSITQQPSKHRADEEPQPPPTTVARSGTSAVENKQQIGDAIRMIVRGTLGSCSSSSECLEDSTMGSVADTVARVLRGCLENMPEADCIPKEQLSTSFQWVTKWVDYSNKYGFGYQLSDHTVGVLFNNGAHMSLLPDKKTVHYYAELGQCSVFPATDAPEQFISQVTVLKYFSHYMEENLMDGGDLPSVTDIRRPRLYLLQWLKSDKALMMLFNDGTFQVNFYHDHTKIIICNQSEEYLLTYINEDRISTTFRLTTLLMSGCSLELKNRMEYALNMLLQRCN

Compound	relative binding affinity in ELISA-based Plk1 inhibition assay [1]	band for binding to Plk2 in pull-down (Flag-Plk2 (K108M))	band for binding to Plk2 in pull-down (Flag-Plk2 (K108M); listed as 7*)
8(S4A): variant of 8 with the serine residue replaced by alanine (P(Butyl(4-Ph))LHA[pT])	significant loss of affinity	–	–
CC(=O)N1C[C@H](OCCCCc2ccccc2)C[C@H]1C(=O)N[C@@H](CC(C)C)C(=O)N[C@@H](Cc1c[nH]cn1)C(=O)N[C@@H](C)C(=O)N[C@H](C(N)=O)[C@@H](C)OP(=O)(O)O [7(S4A)] (Ac-[Hyp](Butyl(4-Ph))LHA[pT]-NH2; N-terminus and C-terminus assumed)	significant loss of affinity	–	–
CC(=O)N1C[C@H](OCCCCc2ccccc2)C[C@H]1C(=O)N[C@@H](CC(C)C)C(=O)N[C@@H](Cc1c[nH]cn1)C(=O)N[C@@H](CO)C(=O)N[C@H](C(N)=O)[C@@H](C)OP(=O)(O)O [compound 7]	–	faint band	not seen
